The text below walks through data of patent US10266526B2, “Substituted 1,2,3-triazoles as SMYD inhibitors for treating cancer” (EPIZYME, INC., priority 2014, dated 2019).

For orientation: IC50 means the concentration that gives 50% inhibition.

The target in the assay is SMYD2 (Homo sapiens (Human), UniProt Q9NRG4). The assay is described as follows: SMYD2 biochemical assay (SMYD2 enzyme assay on peptide substrate, 3H-SAM Flashplate). The settings on record: read-out: SMYD2 Biochem IC50; IC50 values are an average of n = 1 to n = 50.
Chain of SMYD2 (Q9NRG4 whole entry): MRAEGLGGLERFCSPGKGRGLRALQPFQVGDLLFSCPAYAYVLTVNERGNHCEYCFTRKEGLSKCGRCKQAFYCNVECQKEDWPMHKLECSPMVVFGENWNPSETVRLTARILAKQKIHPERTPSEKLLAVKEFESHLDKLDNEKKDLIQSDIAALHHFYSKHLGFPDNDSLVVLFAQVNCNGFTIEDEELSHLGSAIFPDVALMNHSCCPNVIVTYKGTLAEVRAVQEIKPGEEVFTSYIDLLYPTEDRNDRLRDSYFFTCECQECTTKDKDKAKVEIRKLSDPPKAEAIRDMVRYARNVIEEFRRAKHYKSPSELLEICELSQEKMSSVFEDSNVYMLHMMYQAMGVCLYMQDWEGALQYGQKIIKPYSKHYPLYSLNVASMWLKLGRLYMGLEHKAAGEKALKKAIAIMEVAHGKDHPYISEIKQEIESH
As for `COc1cccc(Cn2cc(CN3CC(NC(=O)c4cn(C5CC5)nn4)C3)cn2)c1` [compound 982, 1-cyclopropyl-N-(1-((1-(3-methoxybenzyl)-1H-pyrazol-4-yl)methyl)azetidin-3-yl)-1H-1,2,3-triazole-4-carboxamide], the IC50 was 169 nM.

For the molecule `CSc1ccc(Cn2cc(CN3CC(NC(=O)c4cn(C5CC5)nn4)C3)cn2)cc1` [compound 941, 1-cyclopropyl-N-(1-((1-(4-(methylthio)benzyl)-1H-pyrazol-4-yl)methyl)azetidin-3-yl)-1H-1,2,3-triazole-4-carboxamide], the IC50 is 28 nM.

Consider `O=C(NC1CN(C(c2ccccc2)C2CCC2)C1)c1cn(C2CC2)nn1` (stereo not drawn) [compound 731, N-{1-[cyclobutyl(phenyl)methyl]azetidin-3-yl}-1-cyclopropyl-1H-1,2,3-triazole-4-carboxamide], for which the IC50 was 1520 nM.

For the molecule `CC(c1ccccc1OC(F)(F)F)N1CC(NC(=O)c2cn(C3CC3)nn2)C1` (stereo not drawn) [compound 684, 1-cyclopropyl-N-(1-{1-[2-(trifluoromethoxy)phenyl]ethyl}azetidin-3-yl)-1H-1,2,3-triazole-4-carboxamide], the IC50 amounted to 2130 nM.

For the molecule `O=C(NC1CN(Cc2cncn2Cc2ccccc2)C1)c1cn(C2CC2)nn1` [compound 809, N-{1-[(1-benzyl-1H-imidazol-5-yl)methyl]azetidin-3-yl}-1-cyclopropyl-1H-1,2,3-triazole-4-carboxamide], the IC50 was more than 50000 nM.

Take `O=C(NC1CN(C2CCc3cc(Cl)ccc32)C1)c1cn(C2CC2)nn1` (stereo not drawn) [compound 719, N-[1-(5-chloro-2,3-dihydro-1H-inden-1-yl)azetidin-3-yl]-1-cyclopropyl-1H-1,2,3-triazole-4-carboxamide]: the IC50 is 4410 nM.

`CC(C)N1CC(NC(=O)c2cn(C3CC3)nn2)C1` [compound 662, 1-cyclopropyl-N-[1-(propan-2-yl)azetidin-3-yl]-1H-1,2,3-triazole-4-carboxamide]: the IC50 was found to be 846 nM.

Regarding `CNC1CCCC(C(=O)Nc2cc(O)c3c(c2)OCC(=O)N3)C1` (stereo not drawn) [compound 820, N-(5-hydroxy-3-oxo-3,4-dihydro-2H-1,4-benzoxazin-7-yl)-3-(methylamino)cyclohexane-1-carboxamide], the IC50 is more than 50000 nM.

For the molecule `CCC(c1ccccn1)N1CC(NC(=O)c2cn(C3CC3)nn2)C1` (stereo not drawn) [compound 791, 1-cyclopropyl-N-{1-[1-(pyridin-2-yl)propyl]azetidin-3-yl}-1H-1,2,3-triazole-4-carboxamide], the IC50 came out at 2470 nM.

For the molecule `CN(C)CCCN1CC(NC(=O)c2cn(C3CC3)nn2)C1` [compound 708, 1-cyclopropyl-N-{1-[3-(dimethylamino)propyl]azetidin-3-yl}-1H-1,2,3-triazole-4-carboxamide], the IC50 is more than 50000 nM.

As to `CN1[C@@H]2CC[C@H]1C[C@@H](NC(=O)c1cc(C3CC3)cnn1)C2` [compound 1024, 5-cyclopropyl-N-((1R,3r,5S)-8-methyl-8-azabicyclo[3.2.1]octan-3-yl)pyridazine-3-carboxamide], the IC50 is more than 50000 nM.

`C[C@H](c1ccccc1)N1CC(NC(=O)c2ncc(C3CC3)[nH]2)C1` [compound 915, 5-cyclopropyl-N-{1-[(1R)-1-phenylethyl]azetidin-3-yl}-1H-imidazole-2-carboxamide]: the IC50 was more than 50000 nM.

Regarding `CC(c1ccc(Oc2ccccc2)cc1)N1CC(NC(=O)c2cn(C3CC3)nn2)C1` (stereo not drawn) [compound 739, 1-cyclopropyl-N-{1-[1-(4-phenoxyphenyl)ethyl]azetidin-3-yl}-1H-1,2,3-triazole-4-carboxamide], the IC50 amounted to 1070 nM.

Take `CC(C)CN1CC(NC(=O)c2cn(C3CC3)nn2)C1` [compound 668, 1-cyclopropyl-N-[1-(2-methylpropyl)azetidin-3-yl]-1H-1,2,3-triazole-4-carboxamide]: the IC50 was 2750 nM.

Take `O=C(NC1CN(Cc2ccc(OCc3ccncc3)cc2)C1)c1cn(C2CC2)nn1` [compound 828, 1-cyclopropyl-N-(1-{[4-(pyridin-4-ylmethoxy)phenyl]methyl}azetidin-3-yl)-1H-1,2,3-triazole-4-carboxamide]: the IC50 was 1030 nM.

For the molecule `O=C(NC1CN(Cc2cnn(CC3CCC3)c2)C1)c1cn(C2CC2)nn1` [compound 1001, N-(1-((1-(cyclobutylmethyl)-1H-pyrazol-4-yl)methyl)azetidin-3-yl)-1-cyclopropyl-1H-1,2,3-triazole-4-carboxamide], the IC50 stood at 1400 nM.

As to `COc1cc(C(C)N2CC(NC(=O)c3cn(C4CC4)nn3)C2)ccc1OCc1ccccc1` (stereo not drawn) [compound 939, N-(1-(1-(4-(benzyloxy)-3-methoxyphenyl)ethyl)azetidin-3-yl)-1-cyclopropyl-1H-1,2,3-triazole-4-carboxamide], the IC50 came to 3600 nM.

For the molecule `CC(c1cccc(OCCO)c1Cl)N1CC(NC(=O)c2cc(C3CC3)ccn2)C1` (stereo not drawn) [compound 964, N-(1-(1-(2-chloro-3-(2-hydroxyemoxy)phenyl)ethyl)azetidin-3-yl)-4-cyclopropylpicolinamide], the IC50 came out at 10500 nM.

Take `Cc1ccc(COc2ccc(C(C)N3CC(NC(=O)c4cn(C5CC5)nn4)C3)cc2)cc1` (stereo not drawn) [compound 971, 1-cyclopropyl-N-(1-(1-(4-((4-methylbenzyl)oxy)phenyl)ethyl)azetidin-3-yl)-1H-1,2,3-triazole-4-carboxamide]: the IC50 stood at 88 nM.

Consider `COc1c(OCCO)cccc1C(C)N1CC(NC(=O)c2cc(C3CC3)cnn2)C1` (stereo not drawn) [compound 650, 5-cyclopropyl-N-(1-{1-[3-(2-hydroxyethoxy)-2-methoxyphenyl]ethyl}azetidin-3-yl)pyridazine-3-carboxamide], for which the IC50 was found to be 312 nM.

Turning to `CC(c1ccc2[nH]nc(-c3ccccc3Cl)c2c1)N1CC(NC(=O)c2cn(C3CC3)nn2)C1` (stereo not drawn) [compound 920, N-(1-(1-(3-(2-chlorophenyl)-1H-indazol-5-yl)ethyl)azetidin-3-yl)-1-cyclopropyl-1H-1,2,3-triazole-4-carboxamide], the IC50 is more than 50000 nM.

For the molecule `COc1ccc(CN2CC(NC(=O)c3cn(C4CC4)nn3)C2)cc1` [compound 826, 1-cyclopropyl-N-{1-[(4-methoxyphenyl)methyl]azetidin-3-yl}-1H-1,2,3-triazole-4-carboxamide], the IC50 was found to be 1840 nM.

On to `Cn1cnc(CN2CC(NC(=O)c3cc(C4CC4)cnn3)C2)c1Cl` [compound 648, N-{1-[(5-chloro-1-methyl-1H-imidazol-4-yl)methyl]azetidin-3-yl}-5-cyclopropylpyridazine-3-carboxamide], for which the IC50 is 7330 nM.

On to `CC(c1c(Cl)cccc1Cl)N1CC(NC(=O)c2cn(C3CC3)nn2)C1` (stereo not drawn) [compound 769, 1-cyclopropyl-N-{1-[1-(2,6-dichlorophenyl)ethyl]azetidin-3-yl}-1H-1,2,3-triazole-4-carboxamide], for which the half-maximal inhibitory concentration (IC50) was 1200 nM.

Turning to `CNCCN1CCC(CN2CC(NC(=O)c3cn(C4CC4)nn3)C2)C1=O` (stereo not drawn) [compound 756, 1-cyclopropyl-N-[1-({1-[2-(methylamino)ethyl]-2-oxopyrrolidin-3-yl}methyl)azetidin-3-yl]-1H-1,2,3-triazole-4-carboxamide], the IC50 is 17000 nM.

Regarding `CC(c1ccc(OCc2ccccc2)c(Cl)c1)N1CC(NC(=O)c2cn(C3CC3)nn2)C1` (stereo not drawn) [compound 868, N-(1-{1-[4-(benzyloxy)-3-chlorophenyl]ethyl}azetidin-3-yl)-1-cyclopropyl-1H-1,2,3-triazole-4-carboxamide], the IC50 was found to be 925 nM.

In the case of `CC(c1cccc(OCCO)c1Cl)N1CC(NC(=O)c2cn(C3CC3)nn2)C1` (stereo not drawn) [compound 775, N-(1-{1-[2-chloro-3-(2-hydroxyethoxy)phenyl]ethyl}azetidin-3-yl)-1-cyclopropyl-1H-1,2,3-triazole-4-carboxamide], the IC50 turned out to be 49.4 nM.

For the molecule `CC(=O)Nc1ccc(COc2ccc(C(C)N3CC(NC(=O)c4cn(C5CC5)nn4)C3)cc2)cc1` (stereo not drawn) [compound 1020, N-(1-(1-(4-((4-acetamidobenzyl)oxy)phenyl)ethyl)azetidin-3-yl)-1-cyclopropyl-1H-1,2,3-triazole-4-carboxamide], the IC50 is 950 nM.

With `O=C(NC1CN(Cc2ccc(Cn3cccn3)cc2)C1)c1cn(C2CC2)nn1` [compound 953, N-(1-(4-((1H-pyrazol-1-yl)methyl)benzyl)azetidin-3-yl)-1-cyclopropyl-1H-1,2,3-triazole-4-carboxamide], the IC50 was 5600 nM.

Regarding `O=C(NC1CN(Cc2ccccc2)C1)c1cn(C2CC2)nn1` [compound 671, N-(1-benzylazetidin-3-yl)-1-cyclopropyl-1H-1,2,3-triazole-4-carboxamide], the IC50 was 4210 nM.

As to `O=C(NC1CN(Cc2ccc(OCCCO)cc2)C1)c1cn(C2CC2)nn1` [compound 823, 1-cyclopropyl-N-(1-{[4-(3-hydroxypropoxy)phenyl]methyl}azetidin-3-yl)-1H-1,2,3-triazole-4-carboxamide], the IC50 is 3220 nM.

Consider `COc1ccccc1[C@@H](C)N1CC(NC(=O)c2cc(C3CC3)cnn2)C1` [compound 842, 5-cyclopropyl-N-{1-[(1R)-1-(2-methoxyphenyl)ethyl]azetidin-3-yl}pyridazine-3-carboxamide], for which the IC50 came to 189 nM.

Regarding `CN1CC(NC(=O)c2cc(C3CC3)cnn2)C1` [compound 825, 5-cyclopropyl-N-(1-methylazetidin-3-yl)pyridazine-3-carboxamide], the IC50 stood at 391 nM.

With `COc1cccc(C(C)N2CC(NC(=O)c3cc(C4CC4)cnn3)C2)c1Cl` (stereo not drawn) [compound 851, N-{1-[1-(2-chloro-3-methoxyphenyl)ethyl]azetidin-3-yl}-5-cyclopropylpyridazine-3-carboxamide], the IC50 amounted to 72.1 nM.

`CC(c1ccc2c(c1)OCO2)N1CC(NC(=O)c2cn(C3CC3)nn2)C1` (stereo not drawn) [compound 691, N-{1-[1-(2H-1,3-benzodioxol-5-yl)ethyl]azetidin-3-yl}-1-cyclopropyl-1H-1,2,3-triazole-4-carboxamide]: the IC50 stood at 807 nM.

As to `COc1cccc(C(C)N2CC(NC(=O)c3cc(C4CC4)cnn3)C2)c1` (stereo not drawn) [compound 934, 5-cyclopropyl-N-(1-(1-(3-methoxyphenyl)ethyl)azetidin-3-yl)pyridazine-3-carboxamide], the IC50 amounted to 690 nM.
